Test results: patent US11370846B2, “Compositions and methods to regulate Renalase in the treatment of cancer” (Yale University, priority 2014, dated 2022)

Legend:
WT mice = experiment: Renal ischemia and reperfusion in WT mice with renalase peptide RP-H220; assay type: in vivo, mouse; settings: 30 minutes of renal ischemia and reperfusion
Description: FIG. 3 is a chart showing that ERK or AKT inhibition abrogates protective effect of renalase peptide: WT mice subjected to sham surgery or to 30 minutes of renal ischemia and reperfusion; RP-[…] or vehicle (saline) injected 10 minutes before renal ischemia. ERK inhibitor PD98059 or the PI3K/AKT inhibitor wortmannin abrogated RP-[…]'s protective effect.

MiaPaCa2 cell = settings: pretreatment, MiaPaCa2, WST-1, 72 hrs
Description: FIG. 24B is a chart depicting cell viability relative to control: MiaPaCa2 cell serum starved and then treated with BSA (30 μg/ml) or rRNLS (30 μg/ml), with and without pretreatment with MEK1 inhibitor U0126, and cell viability measured 72 hrs later using the WST-1 assay; n=6, * indicates p<0.005.
For some studies, cell viability was determined using the WST-1 reagent (Roche Diagnostics, Indianapolis, Ind., USA) as previously described (Wang et al., 2014 Journal of the American Society of Nephrology. DOI:10.1681/asn.2013060665).

| Compound | effect on RP-H220's protective effect (WT mice) | effect on rRNLS' protective effect (MiaPaCa2 cell) |
| --- | --- | --- |
| COc1cccc(-c2cc(=O)c3ccccc3o2)c1N [PD98059] | abrogated RP-H220's protective effect |  |
| N#CC(=C(/N)Sc1ccccc1N)/C(C#N)=C(\N)Sc1ccccc1N [U0126] |  | abrogated rRNLS' protective effect |
